Reference: US5567590A, “Methods of diagnosing steroid-resistant inflammation due to type I or type II nuclear glucocorticoid receptor binding abnormalities” (National Jewish Center for Immunology and Respiratory, priority 1994, dated 1996)
Read-outs that look alike come from different tables or passages of the source.

Key:
[1] = 7-10 day course of high dose oral Prednisone in poorly controlled asthmatics; type: in vivo, human; settings: Post-Pn
Procedure: 10 poorly controlled asthmatics received a 7-10 day course of high dose oral Prednisone (20-30 mg po bid). Following prednisone treatment, PBMC's were obtained as generally described in Experiment 1 and the whole cell GR number (sites/cell) and binding affinity (Kd, nmol/l) were determined using techniques generally described in Experiment 1. In addition, spirometry and serum ECP levels were measured pre- and post-Prednisone treatment. […]

[2] = FEV1 response of SS and SR asthma patients to a 1 week course of oral prednisone; type: in vivo, human
Description: Patients with a diagnosis of asthma, based on American Thoracic Society criteria, were selected for evaluation. […]. Patients were excluded if they had evidence for other types of lung disease, pregnancy, suspected noncompliance with medical care, or concurrent therapy with medications that alter glucocorticoid metabolism, such as anti-convulsants or erythromycin. A complete set of pulmonary function tests with lung volume, methacholine bronchial challenge, and diffusion capacity/total lung capacity ratio were obtained if the diagnosis of asthma required confirmation.
Patients were classified as SS or SR based on their prebronchodilator morning FEV1 and their response to a course of oral prednisone. […] All SR asthma patients had glucocorticoid pharmacokinetic studies to exclude those patients with an abnormality in prednisone absorption or metabolism.

[3] = tested on: PBMC from normal donors; settings: MPN 10^-6 to 10^-9 M, 72 hours
Procedure: PBMC were then analyzed for GR-binding parameters or capacity to proliferate in the absence and presence of methylprednisone (MPN). […] After 72 hours of incubation, proliferation was measured by [^3 H]TdR incorporation (1 μCi/well, 6.7 Ci/mmol; ICN, Irvine, Calif.) during the last 6 hours of culture. Proliferation response was measured as the percent of control incorporation of [^3 ]TdR using the formula: [formula] GR-Binding Studies
PBMC from four normal donors were preincubated in the absence and presence of IL-2+IL-4, or IL-2 alone, for 48 hours and then subsequently stimulated with PMA (0.01 μM) and I (0.05 μM) in the presence and absence of MPN ranging in concentration from 10^-6 to 10^-9 M for another 72 hours. […] Each point represents the mean±SEM.

Molecule	GR Number ([1]; PBMC, 10 poorly controlled asthmatics, Pre-Pn 8029 ± 1875, p 0.024) [sites/cell]	ECP ([1]; serum, Pre-Pn 16.1 ± 1.9, p 0.045) [µg/L]	FEV1 /FVC Ratio ([1]; Pre-Pn 0.60 ± 0.02, p 0.014)	FEV1 ([1]; Pre-Pn 63.8 ± 3.2%, p 0.008) [% predicted]	FEV1 after steroid burst ([2]; SR asthma patients (n 17), FEV1 before BD 58 % predicted)	FEV1 after steroid burst ([2]; SS asthma patients (n 12), FEV1 before BD 47 % predicted)	effect of MPN on PMA/I-induced proliferation ([3]; PBMC preincubated 48 hours in culture medium alone)	effect of MPN on PMA/I-induced proliferation ([3]; PBMC preincubated 48 hours with IL-2+IL-4, compared with medium alone)
C[C@]12C=CC(=O)C=C1CC[C@@H]1[C@@H]2C(=O)C[C@@]2(C)[C@H]1CC[C@]2(O)C(=O)CO [Prednisone]	3575 ± 1094	10.8 ± 1.2	0.70 ± 0.01	82.6 ± 4.4	57	82		
methylprednisone [MPN]							significant dose-dependent inhibition of proliferation	significantly decreased inhibitory effect
